In patent publication US20250171490A1, “DHEA-DERIVED STEROIDS” (DEBRECENI EGYETEM, priority 2022, published 2025):
Values joined by “and” are separate entries in the source; they are usually repeats but may differ in a detail not shown here. Equal entries are not always repeated. “Also recorded” adds a separate entry of the source.

Key:
Type in all cases: in vivo
ApoE^−/− mice [1] = assay: Atherosclerotic plaque formation in ApoE−/− mice on atherogenic diet, en face Oil Red O staining of whole aorta (preventive treatment); settings: 100 μg steroid/mouse/day in tap-water, 8 weeks, vs tap water control
Description: (§1) All the animal experiments were approved by the guidelines from Directive 2010/63/EU of the European Parliament on the protection of animals used for scientific purposes. Animal experiments performed in this study were approved by the Scientific and Research Ethics Committee of the Scientific Council of Health of the Hungarian Government under the registration number of DE MÁB/157-5/2010 and are reported in accordance with the ARRIVE guidelines. C57BL/6 ApoE^−/− mice (The Jackson Laboratory; B6.129P2 Apoetm1Unc/J; RRID: IMSR_JAX: 002052) were maintained at the University of Debrecen under specific pathogen-free conditions in accordance with guidelines from Institutional Ethical Committee. To induce atherosclerotic plaque formation, standard chow diet was changed to atherogenic diet (15% fat, 1.25% cholesterol, ssniff Spezialdiäten GmbH, Soest, Germany) at the age of 8 weeks. Mice were randomly divided into two groups and parallelly with the atherogenic diet, mice received tap-water or DHEA-derived steroid (100 μg steroid/mouse/day) in tap-water. The DHEA-derived steroid was replaced every day. Aortas were harvested after 8 weeks of treatment. All mice were euthanized by a predictable and controllable administering of slow-fill compressed CO2 asphyxiation. Atherogenic food composition (high-fat diet): Crude Nutrients (%): Crude Protein 19%; crude fat 15.2%; crude fiber 3.4%; crude ash 6.3%; starch 25.6%; sugar 11.2%; Additives (per kg): vitamin A 15,000 IU; vitamin D3 1,000 IU; vitamin E 110 mg; vitamin K3 5 mg; vitamin C 0 mg; copper 13 mg.
(§2) Aortas were dissected from the aortic arch to the iliac bifurcation. After that, the fatty tissue was carefully removed under a stereomicroscope (M125; Leica Biosystems Nussloch GmbH). […] 0.07 g ORO powder was dissolved in 25 mL methanol and mixed for 10 min on a magnetic stirrer. Finally, 10 mL 1 mol/L NaOH was added to the ORO solution and filtered it. Images were taken with the camera (Nikon D3200; Nikon Corp., Japan) and whole aorta plaque area was analyzed with ImageJ 1.49 software.

ApoE^−/− mice [2] = assay: Survival of ApoE−/− mice during treatment; settings: atherogenic diet; for survival / mortality of mice / mouse death before the end of the experiment: 8 weeks treatment
Description: as §1

ApoE^−/− mice [3] = assay: Aortic valve calcification in ApoE−/− mice on high-fat diet, von Kossa staining (preventive treatment); settings: 8 weeks; for calcification / mineralization of aortic valve (von Kossa): treatment in drinking water, vs tap water
Description: as §1
(§3) Immunohistochemistry from the aortic root was performed on formalin-fixed, paraffin-embedded tissue sections. 4 μm slides were then deparaffinated using xylol and ethanol. The serial sections were stained with Gill Hematoxylin solution (Merck) followed by eosin counterstaining or with von Kossa. For digital documentation, the stained specimens were scanned with a Mirax Midi scanner (3D Histech, Budapest, Hungary). Macroscopic pictures of the arteries were taken with Nikon D3200 camera (Nikon Corp.; Minato, Tokyo, Japan).

H2S = assay: Sulfide (H2S) level of mice plasma, zinc precipitation assay
Description: as §1
Sulfide levels were measured with zinc precipitation method based upon developed by Gilboa-Garber [Gilboa-Garber N. 1971] and modified by A. D. Ang et al. [Ang A D, et al. 2012]. The human carotid artery was homogenized under liquid nitrogen in 7.4 pH PBS and sonicated it. […] After 10 min the absorbance of the generated methylene blue (MB) was measured with a spectrophotometer at 667 nm. Since during the reaction 1 mol/L MB formed from 1 mol/L sulfide, the concentration was determined by the MB's extinction coefficient (30 200 M 1 cm 1). […]

ApoE^−/− mice [4] = assay: Reversal of already formed atherosclerotic lesion in ApoE−/− mice, Oil Red O (therapeutic treatment); settings: for already formed atherosclerotic lesion (plaque size, Oil Red O): atherogenic diet 4 or 6 weeks, then chop diet plus S2 in water for 4 or 8 weeks, vs tap water, sodium salt
Description: (§4) In the further part of the present work, it was examined whether the compounds of the invention have positive therapeutic effect, too. In the above-mentioned animal model, the present inventors developed during eight weeks real atherosclerosis, and for an additional eight weeks animals were given S2 compound (100 micrograms per day per animal). Control mice got pure drinking water. At the end of experiment the size and number of sclerotic plaques, the calcification of heart valves and the amount of hydrogen sulfide was measured. […] This means the compounds of the invention have not only preventive, but also therapeutic effect.
as §2
(§5) From a pharmacological point of view to the best of inventors' knowledge, there is no medicine in the market to reverse atherosclerosis and calcification of vessels. Current drugs only slow down the progression of atherosclerosis. Therefore, the present inventors examined the possibility of S2 steroid treatment to reverse the already formed atherosclerotic lesion and calcification. In this experiment the present inventors kept the mice on atherogenic diet for 4 or 6 weeks for development of atherosclerotic lesion and calcification. After that the present inventors changed the atherogenic diet to chop diet and they added S2 steroid to the mice's water for 4 weeks and 8 weeks. Control group got tap water only.

ApoE^−/− mice [5] = assay: Reversal of already formed aortic valve calcification in ApoE−/− mice, von Kossa (therapeutic treatment); settings: for already formed aortic valve extracellular matrix mineralization (von Kossa): high-fat diet 6 weeks, then chop diet plus S2 in tap water for 4 weeks, vs tap water, sodium salt
Description: as §4, §3, §5

[6] = listed as DHEA-derived steroid, sodium salt
[7] = atherosclerosis developed during eight weeks, then 100 micrograms per day per animal for additional eight weeks, vs drinking water
[8] = listed as DHEA-derived S2 steroid

Compound	atherosclerotic plaque formation / area of atherosclerotic lesion (Oil Red O, whole aorta) (ApoE^−/− mice [1]; sodium salt)	survival / mortality of mice (ApoE^−/− mice [2])	atherosclerotic plaque formation / area of atherosclerotic lesion (Oil Red O, whole aorta) (ApoE^−/− mice [1])	calcification / mineralization of aortic valve (von Kossa) (ApoE^−/− mice [3])	day of the treatment regime on which the first treated animal died (ApoE^−/− mice [2])	mouse death before the end of the experiment (ApoE^−/− mice [2])	further results
CCCCCC(=O)OC1CC[C@H]2[C@@H]3CC=C4CC(OS(=O)(=O)[O-])CC[C@]4(C)[C@H]3CC[C@]12C.[Na+] (some centres unmarked) [C6, 17-hexanoyloxy-5-androstene-3-sulfate sodium salt]	fail to inhibit atherosclerosis; also recorded: not Able to Abrogate Atherosclerotic Plaque Formation	survived	–	–	–	–	–
CCCCCCCCCCCCCCCC(=O)OC1CC[C@H]2[C@@H]3CC=C4CC(OS(=O)(=O)[O-])CC[C@]4(C)[C@H]3CC[C@]12C.[Na+] (some centres unmarked) [C16, 17-palmitoyloxy-5-androstene-3-sulfate sodium salt]	fail to inhibit atherosclerosis; also recorded: not Able to Abrogate Atherosclerotic Plaque Formation	survived	–	–	–	–	–
C[C@]12CC[C@H](O)CC1=CC[C@@H]1[C@@H]2CC[C@]2(C)C(=O)CC[C@@H]12 [DHEA, Dehydroepiandrosterone]	–	elevated mortality rate of the animals	fail to inhibit atherosclerosis; also recorded: did not diminish the development of atherosclerosis; also recorded: not Able to Abrogate Atherosclerotic Plaque Formation	cannot decrease the mineralization of extracellular matrix of aortic valve; also recorded: Failed to Prevent Calcification of Aortic Valve	50 days	45% and 45.5%	–
CCCCCCCCCCCC(=O)OC1CC[C@H]2[C@@H]3CC=C4CC(OS(=O)(=O)[O-])CC[C@]4(C)[C@H]3CC[C@]12C.[Na+] (some centres unmarked) [S2, 17-lauroyloxy-5-androstene-3-sulphate sodium salt]	highly efficient both in the prevention and reversal of atherosclerosis	survived	–	–	–	–	atherosclerotic plaque formation / area of atherosclerotic lesion (Oil Red O, whole aorta) (ApoE^−/− mice [1]; [6]): inhibits atherosclerosis; also recorded: significantly lesser area of atherosclerotic lesion; lower mineralized area of aortic valves calcification nodules compared to tap-water mice (ApoE^−/− mice [3]; steroid in drinking water): 91.2%; calcification / mineralization of aortic valve (von Kossa) (ApoE^−/− mice [3]; [6]): decreases the expansion of the extracellular matrix; also recorded: significantly inhibited the development of calcific nodules in aortic valves; H2S content of mice plasma (H2S; ApoE−/− mice, steroid treated vs tap-water): elevates H2S content of the mice plasma; plasma H2S concentration compared to control mice plasma (H2S; ApoE−/− mice, steroid treated vs tap-water, normalized to protein content): approximately 2.4 times; concentration of hydrogen sulfide (H2S; [7]): significantly higher; already formed atherosclerotic lesion (plaque size, Oil Red O) (ApoE^−/− mice [4]; [8]): reverses atherosclerosis; already formed atherosclerotic lesion (plaque size, Oil Red O) (ApoE^−/− mice [4]): significantly lesser atherosclerotic lesion; size and number of sclerotic plaques (ApoE^−/− mice [4]; [7]): significantly less; calcification of heart valves (ApoE^−/− mice [5]; [7]): significantly less; already formed aortic valve extracellular matrix mineralization (von Kossa) (ApoE^−/− mice [5]; [8]): reverses atherosclerosis and aortic valve calcification; already formed aortic valve extracellular matrix mineralization (von Kossa) (ApoE^−/− mice [5]): significant lesser extracellular matrix mineralization
Dehydroepiandrosterone sulfate [DHEA-S]	–	elevated mortality rate of the animals	fail to inhibit atherosclerosis; also recorded: not Able to Abrogate Atherosclerotic Plaque Formation	cannot decrease the mineralization of extracellular matrix of aortic valve; also recorded: Failed to Prevent Calcification of Aortic Valve	55 days	22% and 28.6%	atherosclerotic plaque formation / area of atherosclerotic lesion (Oil Red O, whole aorta) (ApoE^−/− mice [1]; listed as DHEAS): did not diminish the development of atherosclerosis
